Measured values reported in patent publication US8158850B2, “Method to enhance yield and purity of hybrid crops” (priority 2007, dated 2012).
“And” between values parts separate entries of the source, which are not always exact repeats. Identical values can stand only once.

Tests used:
Type in all cases: in vivo, corn (Zea mays)
[1] = test system: hybrid seed production field, GHS1 or GHS2 female parent with MON88017 or nk603 male parent; assay: Yield of the hybrid seed harvested from female rows of glyphosate-treated GHS fields; details: for average yield of hybrid seed: GHS1 or GHS2 female, glyphosate V8 and V10 at 22 oz/ac, CMS-nk603 comparator yield 29.05 kg; for Average Wt (kg), yield of the hybrid seed: glyphosate treated V8-V10; for Total wt (KG), yield of the hybrid seed: glyphosate treated V8-V10 (22 oz/ac), seed harvested from female rows
Protocol: The yield of hybrid seed is important for maintaining profitability in hybrid seed production systems. […] GHS1 and GHS2 are used as the female parent in a hybrid seed production field with MON88017 or nk603 as the male parent. The GHS fields were treated with glyphosate (V8 and V10 at 22 oz/ac) and the seed harvested from the female rows. […] The average yield is 29.72 kilograms (kg) and 33.39 kg, respectively compared to the CMS-nk603 yield of 29.05 kg.

[2] = test system: transgenic corn event GHS1 (LH198 germplasm crossed to LH287); assay: Percent anther extrusion (AE %) at silk emergence after glyphosate treatment, field split plot test; details: Event GHS-1
Description: (§1) Corn plants transformed with the DNA construct are produced and unique events that have the desired glyphosate tolerance phenotype are selected by treatment with glyphosate a various growth stages and at various rates of glyphosate. Optimal tassel and anther sensitivity to glyphosate can be determined by treatment with an effective dose of glyphosate during corn plant growth and then measuring the pollen shed or anther extrusion. Rapidly maturing corn inbred lines may have early tassel development and glyphosate treatments and rates can be adjusted as needed to produce male sterility in these inbred lines. Transgenic events for the glyphosate hybrid system were designated as event GHS1, GHS2 and GHS3, and selected by various glyphosate treatments to determine the rates and timing of glyphosate that provide the desired level of male sterility as measured by percent anther extrusion. Glyphosate was applied to a field containing the events using the following parameters: • Nozzle: Tee Jet Air Induction (AI) 110015-VS broadcast (green plus green adaptor) spaced on 30″ centers • GPA: 10-12 gallons per acre (GPA) • PSI: 30-35 pounds per square inch • Speed: 2-2.5 MPH • Nozzle Height: 16-18″ above “cup” of the whorl • Useful Conversions:
(§2) • Roundup Ultra®=3 lb acid equivalent (ae)/gal or 32 oz=0.75 lb ae/[…] • Roundup WeatherMax®—22 oz/acre=0.75 lb ae/acre • Nozzle calibration: Determine GPM (gallon per minute) output—Select nozzles and set PSI as specified above. Insure screens are all the same style and size. Collect output (30 sec minimum) of every nozzle at engine operating RPM equivalent to field conditions. Replicate 3 times for consistency and replace any nozzle with greater than +5% variation compared to other nozzles. Repeat until all nozzles are consistent. • Tractor speed—Determine sprayer speed in mph at above spray RPM. Measure off known distance (i.e. 100′) and measure 3 times for consistency. • Calibration of application equipment—The following formula was used to calculate spray output in GPA: GPA=5940×GPM (per nozzle), MPH×W; wherein W=Nozzle spacing (in inches) for broadcast spraying.
(§3) Transgenic events GHS1, GHS2, and GHS3 were treated with one or two applications of glyphosate (Roundup WeatherMax®) over the corn development stages V8-V12 (vegetative 8 leaf—vegetative 12 leaf). These development stages also correlate with pollen development in most inbred corn varieties. In this example, the transgenic events are in an LH198 germplasm crossed to LH287. The fertility score is a measure of the percent risk of anther extrusion (AE) observed at the time of silk emergence from the corn ear. The three events and a LH198DMSRR2 control (CMS germplasm with glyphosate tolerance) were treated with six glyphosate treatments (Table 4). The glyphosate treatments are single applications of 0.75 lb ae/ac at V8 stage (Trt 1), 0.75 lb ae/ac at V10 stage (Trt 2) and 0.54 lb ae/ac at V12 stage (Trt 3), and double applications of 0.75 lb ae/ac at V8 followed by 0.54 lb ae/ac at V12 (Trt 4), 0.75 lb ae/ac at V10 followed by 0.54 lb ae/ac at V12 (Trt 5), and 0.75 lb ae/ac at V8 followed by 0.75 lb ae/ac at V10 (Trt 6). The test was set up as a split plot design with 2 row plots and the glyphosate treatments applied in strips over all of the replications. FIG. 1 illustrates AE % as averaged across all spray treatments across each test plot and event.

[3] = test system: transgenic corn event GHS3 (LH198 germplasm crossed to LH287); assay: as above; details: Event GHS-3
Description: as §1, §2, §3

[4] = test system: LH198DMSRR2 control (CMS germplasm with glyphosate tolerance); assay: as above
Description: as §1, §2, §3

[5] = test system: transgenic corn event GHS2 (LH198 germplasm crossed to LH287); assay: as above; details: Event GHS-2
Description: as §1, §2, §3

[6] = Trt 4: 0.75 lb ae/ac at V8 followed by 0.54 lb ae/ac at V12
[7] = Trt 5: 0.75 lb ae/ac at V10 followed by 0.54 lb ae/ac at V12
[8] = Trt 6: 0.75 lb ae/ac at V8 followed by 0.75 lb ae/ac at V10

O=C(O)CNCP(=O)(O)O [glyphosate, n-phosphonomethylglycine]
average yield of hybrid seed ([1]; MON88017 male): 29.72 kg | average yield of hybrid seed ([1]; nk603 male): 33.39 kg | Average Wt (kg), yield of the hybrid seed ([1]; female GHS1, average over MON88017 and NK603 male parents): 29.72 kg | Total wt (KG), yield of the hybrid seed ([1]; female GHS1, male MON88017): 25.9 kg and 31.5 kg | Total wt (KG), yield of the hybrid seed ([1]; female GHS1, male NK603): 32.16 kg and 29.35 kg | Average Wt (kg), yield of the hybrid seed ([1]; female GHS2, average over MON88017 and NK603 male parents): 33.39 kg | Total wt (KG), yield of the hybrid seed ([1]; female GHS2, male MON88017): 27.5 kg and 35.74 kg | Total wt (KG), yield of the hybrid seed ([1]; female GHS2, male NK603): 38.67 kg and 31.66 kg | AE (%) ([2]; Trt 2: 0.75 lb ae/ac at V10): 0.0% | AE (%) ([2]; Trt 3: 0.54 lb ae/ac at V12): ~12.1% | AE (%) [2, 6]: 0.0% | AE (%) [2, 7]: 0.0% | AE (%) [2, 8]: 0.0% | AE (%) ([3]; Trt 1: 0.75 lb ae/ac at V8): ~5.9% | AE (%) ([3]; Trt 2: 0.75 lb ae/ac at V10): 0.1% | AE (%) [3, 6]: 0.0% | AE (%) [3, 7]: 0.0% | AE (%) [3, 8]: 0.0% | AE (%) ([4]; Trt 1: 0.75 lb ae/ac at V8): 0.1% | AE (%) ([4]; Trt 2: 0.75 lb ae/ac at V10): 0.1% | AE (%) ([4]; Trt 3: 0.54 lb ae/ac at V12): 0.1% | AE (%) [4, 6]: ~0.3% | AE (%) [4, 7]: ~0.3% | AE (%) [4, 8]: 0.0% | AE (%) ([5]; Trt 1: 0.75 lb ae/ac at V8): 0.4% | AE (%) ([5]; Trt 2: 0.75 lb ae/ac at V10): 0.0% | AE (%) ([5]; Trt 3: 0.54 lb ae/ac at V12): ~3.0% | AE (%) [5, 6]: 0.0% | AE (%) [5, 7]: 0.0% | AE (%) [5, 8]: 0.0%
